Assay results published in patent US11724997B2, “Compounds and compositions for treating conditions associated with APJ receptor activity” (Annapurna Bio, Inc., priority 2018, dated 2023).

Each molecule was assayed against T1, APJ Receptor (Homo sapiens, UniProt P35414) (assay: APJ cAMP assay: inhibition of forskolin-stimulated cAMP, enzyme fragment complementation, in CHO-K1 cells stably expressing the APJ Receptor). Details: CHO-K1 cell line (DiscoverX) stably expressing APJ Receptor; EC80 forskolin; 30 minutes at 37° C.; read-out: APJ cAMP EC50 Potency range.
T1 sequence (P35414 1-380): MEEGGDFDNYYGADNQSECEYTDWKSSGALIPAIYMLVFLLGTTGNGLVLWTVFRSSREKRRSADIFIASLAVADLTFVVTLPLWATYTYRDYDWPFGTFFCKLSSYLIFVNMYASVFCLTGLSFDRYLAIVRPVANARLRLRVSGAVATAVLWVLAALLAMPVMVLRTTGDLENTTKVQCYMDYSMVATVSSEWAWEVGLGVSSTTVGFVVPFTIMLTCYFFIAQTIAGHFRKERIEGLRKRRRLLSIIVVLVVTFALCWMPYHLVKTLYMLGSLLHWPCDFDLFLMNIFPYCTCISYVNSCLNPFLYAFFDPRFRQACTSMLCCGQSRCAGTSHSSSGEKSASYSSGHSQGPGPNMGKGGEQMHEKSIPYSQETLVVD
Type: cell-based
From the text: Activation of APJ receptor is known to inhibit forskolin-stimulated cyclic AMP (cAMP) production in cells in a pertussis toxin-sensitive manner which indicates primary coupling to the GαI subunit of the G protein heterotrimeric complex. In addition to signaling through G protein and inhibition of cAMP, APJ receptor activation also results in β-arrestin recruitment, receptor internalization and activation of extracellular-regulated kinases (ERKs).
In order to optimize functional activity directed toward Gi coupling we utilized a CHO-K1 cell line developed by DiscoverX stably expressing the APJ Receptor. Cells expressing APJR receptor were plated in a 384-well microtiter plates and incubated overnight at 37° C. with 5% CO2 to allow the cells to attach and grow. Media was then aspirated from the cells and replaced with 15 uL 2:1 Hanks Balanced Salt Solution (HBSS)/10 mM Hepes. cAMP XS+ Ab reagent. Five microliters (5 uL) of previously generated compound sample stocks at 4× final concentration in assay buffer containing 4×EC80 forskolin were then added to the cells and allowed to incubate at 37° C. for 30 minutes.
After incubation the assay signal was generated using a technology termed enzyme fragment complementation (EFC). In EFC the enzyme B-galactosidase is split into two complementary portions (EA and ED). The fragment ED is fused to cAMP and in the assay format competes with endogenous cAMP for binding to a cAMP specific antibody. Activated B-Gal is formed when exogenous EA fragment binds to free ED-cAMP (not bound to cAMP specific antibody). Activated enzyme levels are detected through conversion of B-gal chemiluminescent substrate which generates a detectable luminescence signal and read on standard microtiter plate.
The methodology for detection of cAMP using EFC requires incubation with 20 uL of cAMP XS+ ED/CL lysis cocktail for one hour followed by incubation with 20 uL cAMP XS+ EA reagent for three hours at room temperature. Microplates were read following signal generation with a PerkinElmer Envision instrument utilizing chemiluminescent signal detection.
Compound activity was analyzed using CBIS data analysis suite (ChemInnovation, CA).
Percentage activity was calculated using the following formula: % Activity=[…]×(1−(mean RLU of test sample−mean RLU of Max control)/(mean RLU of vehicle control−mean RLU of Max control))
The biological activity of the exemplified compounds of this invention determined by the assay described above is shown in Table 1. The APJ cAMP EC50 potency ranges are as follows: A: EC50<1 nM; B: 1≤EC50<100 nM; and C: 100≤EC50<10,000 nM.

**Q.** `COc1cccc(OC)c1-n1c(C(=O)NS(=O)(=O)Cc2ccccc2)nnc1-c1cccc(OC(F)F)n1` [Example 21, N-(benzylsulfonyl)-5-(6-(difluoromethoxy)pyridin-2-yl)-4-(2,6-dimethoxyphenyl)-4H-1,2,4-triazole-3-carboxamide] was tested. Which EC50 did it give?
**A.** 1 to 100 nM

**Q.** With `COc1cccc(OC)c1-n1c(C(=O)NS(=O)(=O)Cc2ncccn2)nnc1-c1cccc(OC(F)F)n1` [Example 22, 5-(6-(Difluoromethoxy)pyridin-2-yl)-4-(2,6-dimethoxyphenyl)-N-((pyrimidin-2-ylmethyl)sulfonyl)-4H-1,2,4-triazole-3-carboxamide] as the molecule, how does the EC50 read?
**A.** 1 to 100 nM

**Q.** For `COc1cccc(OC)c1-n1c(C(=O)NS(=O)(=O)Cc2ncccn2)nnc1-c1ccc(F)c(OC)n1` [Example 23, 4-(2,6-Dimethoxyphenyl)-5-(5-fluoro-6-methoxypyridin-2-yl)-N-((pyrimidin-2-ylmethyl)sulfonyl)-4H-1,2,4-triazole-3-carboxamide], which EC50 is on record?
**A.** 100 to 10000 nM

**Q.** For `COc1cccc(OC)c1-n1c(C(=O)NS(=O)(=O)Cc2ncc(C)cn2)nnc1-c1ccc(C)cn1` [Example 24, 4-(2,6-Dimethoxyphenyl)-5-(5-methylpyridin-2-yl)-N-(((5-methylpyrimidin-2-yl)methyl)sulfonyl)-4H-1,2,4-triazole-3-carboxamide], which EC50 is on record?
**A.** 100 to 10000 nM

**Q.** For `COc1cccc(OC)c1-n1c(C(=O)NS(=O)(=O)Cc2ncccn2)nnc1-c1cc(C)ccn1` [Example 25, 4-(2,6-Dimethoxyphenyl)-5-(4-methylpyridin-2-yl)-N-((pyrimidin-2-ylmethyl)sulfonyl)-4H-1,2,4-triazole-3-carboxamide], which EC50 is on record?
**A.** 100 to 10000 nM

**Q.** With `COc1cccc(-c2nnc(C(=O)NS(=O)(=O)Cc3ncccn3)n2-c2c(OC)cccc2OC)n1` [Example 26, 4-(2,6-dimethoxyphenyl)-5-(6-methoxypyridin-2-yl)-N-((pyrimidin-2-ylmethyl)sulfonyl)-4H-1,2,4-triazole-3-carboxamide] as the molecule, how does the EC50 read?
**A.** < 1 nM

**Q.** For `COc1cccc(-c2nnc(C(=O)NS(=O)(=O)Cc3ncc(C)cn3)n2-c2c(OC)cccc2OC)n1` [Example 27, 4-(2,6-Dimethoxyphenyl)-5-(6-methoxypyridin-2-yl)-N-(((5-methylpyrimidin-2-yl)methyl)sulfonyl)-4H-1,2,4-triazole-3-carboxamide], which EC50 is on record?
**A.** < 1 nM

**Q.** With `COc1cccc(-c2nnc(C(=O)NS(=O)(=O)Cc3ccccn3)n2-c2c(OC)cccc2OC)n1` [Example 28, 4-(2,6-Dimethoxyphenyl)-5-(6-methoxypyridin-2-yl)-N-((pyridin-2-ylmethyl)sulfonyl)-4H-1,2,4-triazole-3-carboxamide] as the molecule, how does the EC50 read?
**A.** < 1 nM

**Q.** Which EC50 does the source give for `COc1cccc(-c2nnc(C(=O)NS(=O)(=O)Cc3ncc(Cl)cn3)n2-c2c(OC)cccc2OC)n1` [Example 29, N-(((5-chloropyrimidin-2-yl)methyl)sulfonyl)-4-(2,6-dimethoxyphenyl)-5-(6-methoxypyridin-2-yl)-4H-1,2,4-triazole-3-carboxamide] here?
**A.** < 1 nM

**Q.** For `COc1cccc(-c2nnc(C(=O)NS(=O)(=O)Cc3cccc(F)c3)n2-c2c(OC)cccc2OC)n1` [Example 30, 4-(2,6-Dimethoxyphenyl)-N-((3-fluorobenzyl)sulfonyl)-5-(6-methoxypyridin-2-yl)-4H-1,2,4-triazole-3-carboxamide], which EC50 is on record?
**A.** 1 to 100 nM

**Q.** For `COc1cccc(-c2nnc(C(=O)NS(=O)(=O)Cc3ccc(F)cc3)n2-c2c(OC)cccc2OC)n1` [Example 31, 4-(2,6-Dimethoxyphenyl)-N-((4-fluorobenzyl)sulfonyl)-5-(6-methoxypyridin-2-yl)-4H-1,2,4-triazole-3-carboxamide], which EC50 is on record?
**A.** < 1 nM

**Q.** With `COc1cccc(-c2nnc(C(=O)NS(=O)(=O)CC3CCCCC3)n2-c2c(OC)cccc2OC)n1` [Example 34, N-((cyclohexylmethyl)sulfonyl)-4-(2,6-dimethoxyphenyl)-5-(6-methoxypyridin-2-yl)-4H-1,2,4-triazole-3-carboxamide] as the molecule, how does the EC50 read?
**A.** < 1 nM

**Q.** How did the EC50 turn out when `COc1cccc(-c2nnc(C(=O)NS(=O)(=O)CC3CC3)n2-c2c(OC)cccc2OC)n1` [Example 35, N-((cyclopropylmethyl)sulfonyl)-4-(2,6-dimethoxyphenyl)-5-(6-methoxypyridin-2-yl)-4H-1,2,4-triazole-3-carboxamide] was run?
**A.** 1 to 100 nM

**Q.** For `COc1cccc(-c2nnc(C(=O)NS(=O)(=O)Cc3cncnc3)n2-c2c(OC)cccc2OC)n1` [Example 36, 4-(2,6-Dimethoxyphenyl)-5-(6-methoxypyridin-2-yl)-N-((pyrimidin-5-ylmethyl)sulfonyl)-4H-1,2,4-triazole-3-carboxamide], which EC50 is on record?
**A.** 1 to 100 nM

**Q.** With `COc1cccc(-c2nnc(C(=O)NS(=O)(=O)Cc3cnccn3)n2-c2c(OC)cccc2OC)n1` [Example 37, 4-(2,6-Dimethoxyphenyl)-5-(6-methoxypyridin-2-yl)-N-((pyrazin-2-ylmethyl)sulfonyl)-4H-1,2,4-triazole-3-carboxamide] as the molecule, how does the EC50 read?
**A.** 1 to 100 nM

**Q.** With `CCOc1cccc(-c2nnc(C(=O)NS(=O)(=O)Cc3ncc(C)cn3)n2-c2c(OC)cccc2OC)n1` [Example 38, 4-(2,6-Dimethoxyphenyl)-5-(6-ethoxypyridin-2-yl)-N-(((5-methylpyrimidin-2-yl)methyl)sulfonyl)-4H-1,2,4-triazole-3-carboxamide] as the molecule, how does the EC50 read?
**A.** < 1 nM

**Q.** How did the EC50 turn out when `CCOc1cccc(-c2nnc(C(=O)NS(=O)(=O)Cc3ncccn3)n2-c2c(OC)cccc2OC)n1` [Example 41, 4-(2,6-Dimethoxyphenyl)-5-(6-ethoxypyridin-2-yl)-N-((pyrimidin-2-ylmethyl)sulfonyl)-4H-1,2,4-triazole-3-carboxamide] was run?
**A.** < 1 nM

**Q.** How did the EC50 turn out when `CCOc1cccc(-c2nnc(C(=O)NS(=O)(=O)Cc3ncc(F)cn3)n2-c2c(OC)cccc2OC)n1` [Example 42, 4-(2,6-Dimethoxyphenyl)-5-(6-ethoxypyridin-2-yl)-N-(((5-fluoropyrimidin-2-yl)methyl)sulfonyl)-4H-1,2,4-triazole-3-carboxamide] was run?
**A.** < 1 nM

**Q.** Which EC50 does the source give for `CCOc1cccc(-c2nnc(C(=O)NS(=O)(=O)Cc3ncc(Cl)cn3)n2-c2c(OC)cccc2OC)n1` [Example 43, N-(((5-chloropyrimidin-2-yl)methyl)sulfonyl)-4-(2,6-dimethoxyphenyl)-5-(6-ethoxypyridin-2-yl)-4H-1,2,4-triazole-3-carboxamide] here?
**A.** < 1 nM

**Q.** Which EC50 does the source give for `CCOc1cccc(-c2nnc(C(=O)NS(=O)(=O)Cc3ncc(OC)cn3)n2-c2c(OC)cccc2OC)n1` [Example 44, 4-(2,6-Dimethoxyphenyl)-5-(6-ethoxypyridin-2-yl)-N-(((5-methoxypyrimidin-2-yl)methyl)sulfonyl)-4H-1,2,4-triazole-3-carboxamide] here?
**A.** < 1 nM

**Q.** `CCOc1cccc(-c2nnc(C(=O)NS(=O)(=O)CCc3ccncc3)n2-c2c(OC)cccc2OC)n1` [Example 49, 4-(2,6-Dimethoxyphenyl)-5-(6-ethoxypyridin-2-yl)-N-((2-(pyridin-4-yl)ethyl)sulfonyl)-4H-1,2,4-triazole-3-carboxamide] was tested. Which EC50 did it give?
**A.** < 1 nM

**Q.** For `CCOc1cccc(-c2nnc(C(=O)NS(=O)(=O)CCc3cccnc3)n2-c2c(OC)cccc2OC)n1` [Example 50, 4-(2,6-Dimethoxyphenyl)-5-(6-ethoxypyridin-2-yl)-N-((2-(pyridin-3-yl)ethyl)sulfonyl)-4H-1,2,4-triazole-3-carboxamide], which EC50 is on record?
**A.** < 1 nM

**Q.** For `CCOc1cccc(-c2nnc(C(=O)NS(=O)(=O)CCc3ccccn3)n2-c2c(OC)cccc2OC)n1` [Example 51, 4-(2,6-Dimethoxyphenyl)-5-(6-ethoxypyridin-2-yl)-N-((2-(pyridin-2-yl)ethyl)sulfonyl)-4H-1,2,4-triazole-3-carboxamide], which EC50 is on record?
**A.** < 1 nM

**Q.** With `CCOc1cccc(-c2nnc(C(=O)NS(=O)(=O)Cc3ncccc3F)n2-c2c(OC)cccc2OC)n1` [Example 52, 4-(2,6-Dimethoxyphenyl)-5-(6-ethoxypyridin-2-yl)-N-(((3-fluoropyridin-2-yl)methyl)sulfonyl)-4H-1,2,4-triazole-3-carboxamide] as the molecule, how does the EC50 read?
**A.** < 1 nM

**Q.** For `CCOc1cccc(-c2nnc(C(=O)NS(=O)(=O)Cc3ccccc3F)n2-c2c(OC)cccc2OC)n1` [Example 53, 4-(2,6-Dimethoxyphenyl)-5-(6-ethoxypyridin-2-yl)-N-((2-fluorobenzyl)sulfonyl)-4H-1,2,4-triazole-3-carboxamide], which EC50 is on record?
**A.** < 1 nM
